# In paper PMC11079024, “Identification of a family of species-selective complex I inhibitors as potential anthelmintics” (Nature Communications, 2024):
# Legend:
# [1] = molecular target: H. sapiens (HEK293 cells) complex I (Homo sapiens, UniProt O75251+O75306+P03886); assay: In vitro complex I activity assay, HEK293 cell mitochondria; format: biochemical
# L1 C. briggsae (AF16) = assay: Liquid development and viability assay, C. briggsae; format: cell-based, Caenorhabditis briggsae; settings: liquid growth and development assay, 1 = like DMSO control, 0 = death
# Description: Supplementary Figure 9. Class A, B, and C benzimidazoles inhibit complex I of several Clade V nematode species in vitro. […]
# against the in vitro complex I activity from C. elegans, C. briggsae, P. pacificus, and P. hermaphrodita […]
# L1 C. elegans (N2), C. briggsae (AF16), and P. pacificus (PS312) in a nematode liquid growth and development assay. The colour-coded scale denotes the viability of nematodes following drug treatment relative to DMSO controls; white/pale-yellow indicates nematode growth and viability similar to DMSO controls and red indicates nematode death and arrested development. Data are the mean of at least three biological replicates. Due to seemingly poor growth in liquid culture, P. hermaphrodita was not tested in the liquid viability and development assay.
# Supplementary Figure 9 (continued). Davie et al.
# Sequence of H. sapiens (HEK293 cells) complex I (O75251 39-213): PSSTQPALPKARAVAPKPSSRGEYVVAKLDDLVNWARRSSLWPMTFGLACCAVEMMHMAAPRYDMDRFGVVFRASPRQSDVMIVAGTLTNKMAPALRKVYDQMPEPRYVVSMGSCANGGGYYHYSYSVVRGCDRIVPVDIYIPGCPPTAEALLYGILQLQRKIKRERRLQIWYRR
# Sequence of H. sapiens (HEK293 cells) complex I (P03886 whole entry): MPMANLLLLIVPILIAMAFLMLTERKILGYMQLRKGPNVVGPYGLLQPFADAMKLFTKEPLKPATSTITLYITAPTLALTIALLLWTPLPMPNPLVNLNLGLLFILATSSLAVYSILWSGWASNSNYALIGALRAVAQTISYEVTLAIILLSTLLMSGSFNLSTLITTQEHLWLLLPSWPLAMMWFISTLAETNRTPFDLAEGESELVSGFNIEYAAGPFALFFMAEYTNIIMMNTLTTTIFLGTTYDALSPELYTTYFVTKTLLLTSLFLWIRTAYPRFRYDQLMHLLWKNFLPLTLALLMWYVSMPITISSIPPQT
# Sequence of H. sapiens (HEK293 cells) complex I (O75306 34-463): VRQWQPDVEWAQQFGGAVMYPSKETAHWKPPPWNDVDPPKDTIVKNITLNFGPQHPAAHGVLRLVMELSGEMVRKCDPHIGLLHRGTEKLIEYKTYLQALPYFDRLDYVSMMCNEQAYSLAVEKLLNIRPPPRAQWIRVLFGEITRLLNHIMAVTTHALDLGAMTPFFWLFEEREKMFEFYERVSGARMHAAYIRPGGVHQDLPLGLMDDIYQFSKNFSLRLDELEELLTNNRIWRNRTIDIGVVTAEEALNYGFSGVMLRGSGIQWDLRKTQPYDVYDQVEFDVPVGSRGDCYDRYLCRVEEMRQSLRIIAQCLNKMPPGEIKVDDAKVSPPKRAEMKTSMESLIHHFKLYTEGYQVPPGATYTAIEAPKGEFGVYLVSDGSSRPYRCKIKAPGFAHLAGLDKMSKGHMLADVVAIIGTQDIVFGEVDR
SMILES,"remaining activity at 0.06 µM ([1]; H. sapiens (HEK293 cells) mitochondria, 0.06 µM, Mean of replicates, read-out: in vitro complex I activity relative to solvent control)","remaining activity at 0.13 µM ([1]; H. sapiens (HEK293 cells) mitochondria, 0.13 µM, Mean of replicates, read-out: in vitro complex I activity relative to solvent control)","remaining activity at 0.313 µM ([1]; H. sapiens (HEK293 cells) mitochondria, 0.313 µM, Mean of replicates, read-out: in vitro complex I activity relative to solvent control)","remaining activity at 0.625 µM ([1]; H. sapiens (HEK293 cells) mitochondria, 0.625 µM, Mean of replicates, read-out: in vitro complex I activity relative to solvent control)","remaining activity at 1.5 µM ([1]; H. sapiens (HEK293 cells) mitochondria, 1.5 µM, Mean of replicates, read-out: in vitro complex I activity relative to solvent control)","remaining activity at 3 µM ([1]; H. sapiens (HEK293 cells) mitochondria, 3 µM, Mean of replicates, read-out: in vitro complex I activity relative to solvent control)","remaining activity at 15 µM ([1]; H. sapiens (HEK293 cells) mitochondria, 15 µM, Mean of replicates, read-out: in vitro complex I activity relative to solvent control)","remaining activity at 37.5 µM ([1]; H. sapiens (HEK293 cells) mitochondria, 37.5 µM, Mean of replicates, read-out: in vitro complex I activity relative to solvent control)","remaining activity at 75 µM ([1]; H. sapiens (HEK293 cells) mitochondria, 75 µM, Mean of replicates, read-out: in vitro complex I activity relative to solvent control)",IC50 ([1]; mitochondria purified from HEK293 cells),viability score (0-1) relative to DMSO controls (L1 C. briggsae (AF16); 2 µM),viability score (0-1) relative to DMSO controls (L1 C. briggsae (AF16); 3.9 µM),viability score (0-1) relative to DMSO controls (L1 C. briggsae (AF16); 15.6 µM),viability score (0-1) relative to DMSO controls (L1 C. briggsae (AF16); 31.3 µM),viability score (0-1) relative to DMSO controls (L1 C. briggsae (AF16); 62.5 µM),viability score (0-1) relative to DMSO controls (L1 C. briggsae (AF16); 125 µM),viability score (0-1) relative to DMSO controls (L1 C. briggsae (AF16); 250 µM)
CC(C)Cc1ccc(C(C)c2nc3ccccc3n2C)cc1 (centres unmarked) [NPD8790],90.2%,78.3%,76.7%,129%,95.7%,102%,85.1%,52.8%,61.5%,> 75 µM,–,–,–,–,–,–,–
Cc1nc2ccccc2n1Cc1ccc(Cl)cc1 [STK697993],–,–,–,–,–,–,–,–,–,–,1.000,1.000,1.000,0.341,0.009,0.017,0.008
